Data taken from US8268867B2, “1,3-dioxane carboxylic acids” (Cadila Healthcare Limited, priority 2006, dated 2012).
Structures can show the parent of a compound that is named as a salt.

Legend:
Swiss albino mice = assay: Serum triglyceride lowering activity in Swiss albino mice; assay type: in vivo; details: Mus musculus, po, 144 h; male Swiss albino mice, 10 mg/kg/day orally for 6 days, serum 1 hour after dosing on 6th day
Description: Male Swiss albino mice (SAM) were bred in Zydus animal house. All these animals were maintained under 12 hour light and dark cycle at 25±1° C. Animals were given standard laboratory chow (NIN, Hyderabad, India) and water ad libitum. SAM of 20-30 g body weight range was used. The protocol approved by Institutional Animal Ethics Committee is being used.
The test compounds were administered orally to Swiss albino mice at 0.001 to 50 mg/kg/day dose for 6 days. The compound was administered after suspending it in 0.25% CMC or dissolving it in water, when compound is water-soluble. Control mice were treated with vehicle (0.25% of Carboxymethyl cellulose; dose 10 ml/kg).
The blood samples were collected on 0th day and in fed state 1 hour after drug administration on 6th day of the treatment. The blood was collected in non heparinised capillary and the serum was analyzed for triglyceride (Wieland, O. Methods of Enzymatic analysis. Bergermeyer, H., O., Ed., 1963. 211-214; Trinder, P. Ann. Clin. Biochem. 1969. 6: 24-27). Measurement of serum triglyceride was done using commercial kits (Zydus-Cadila, Pathline, Ahmedabad, India).
Percentage Reduction in Triglycerides was Calculated According to the Formula: […]

C57BL/KsJ-db/db mice = assay: Serum glucose and triglycerides lowering activity in db/db mice; assay type: in vivo; details: male db/db mice, 3 mg/kg/day oral gavage for 6 days, 1 hour after dosing on 6th day
Description: Homozygous animal C57BL/KsJ-db/db mice are obese, hyperglycemic, hyperinsulinemic and insulin resistant (J. Clin. Invest, 85, 962-967, 1990), whereas heterozygous are lean and normoglycemic. The homozygous animals very closely mimic the human type H diabetes when blood sugar levels are not sufficiently controlled. Since this type of model resembles human type II diabetes mellitus, the compounds of the invention were tested for their antidiabetic activity in this model.
Male C57BL/KsJ-db/db mice of 8 to 14 weeks age, having body weight range of 40 to 60 grams, procured from the Jackson Laboratory, USA, were used in the experiment.
Test compounds were suspended on 0.25% carboxymethyl cellulose or dissolved in water when the compound is water soluble and administered to test group containing 6 animals at a dose of 0.001 mg to 50 mg/kg through oral gavage daily for 6 days. The control group received vehicle (dose 10 ml/kg). On the 6th day, one hour after the drug dosing, blood was collected from retro-orbital sinus and the serum was analyzed for glucose and triglycerides were measured using commercial kits (Zydus-Cadila, Pathline, Ahmedabad, India). The serum glucose and triglyceride lowering activities of the test compound was calculated according of the formula: […]

| melting point | SMILES | inhibition in vivo at 10 mg/kg/day (Swiss albino mice) | Plasma TG reduction (%) (C57BL/KsJ-db/db mice) | Serum Glucose reduction (%) (C57BL/KsJ-db/db mice) |
| --- | --- | --- | --- | --- |
| 240 °C | CC(=NOCCCCC1COC(C)(C(=O)O)OC1)c1ccc2ccccc2c1 (centres unmarked) (as salt: sodium) [Example 84, Sodium Salt of 2-Methyl-5-[4-(1-naphthalen-2-yl-ethylideneaminooxy)-butyl]-[1,3]dioxane-2-carboxylic Acid] | – | – | – |
| – | CC(=NOCCCCC1COC(C)(C(=O)O)OC1)c1ccc(C(F)(F)F)cc1 (centres unmarked) [Example 44, 2-Methyl-5-{4-[1-(4-trifluoromethyl-phenyl)-ethylideneaminooxy]-butyl}-[1,3]dioxane-2-carboxylic Acid] | 40% | – | – |
| – | CC(=NOCCCCC1COC(C)(C(=O)O)OC1)c1ccc(Cl)cc1 (centres unmarked) [Example 46, 5-{4-[1-(4-Chloro-phenyl)-ethylideneaminooxy]-butyl}-2-methyl-[1,3]dioxane-2-carboxylic Acid] | 39% | – | – |
| – | CC(=NOCCCCC1COC(C)(C(=O)O)OC1)c1ccc(C)cc1 (centres unmarked) [Example 48, 2-Methyl-5-[4-(1-p-tolyl-ethylideneaminooxy)-butyl]-[1,3]dioxane-2-carboxylic Acid] | 64% | 44% | 14% |
| – | CC(=NOCCCCC1COC(C)(C(=O)O)OC1)c1ccc(F)c(Cl)c1 (centres unmarked) [Example 49, 5-{4-[1-(3-Chloro-4-fluoro-phenyl)-ethylideneaminooxy]-butyl}-2-methyl-[1,3]dioxane-2-carboxylic Acid] | 51% | – | – |
| – | CCc1ccc(C(C)=NOCCCCC2COC(C)(C(=O)O)OC2)cc1 (centres unmarked) [Example 52, 5-{4-[1-(4-Ethyl-phenyl)-ethylideneaminooxy]-butyl}-2-methyl-[1,3]dioxane-2-carboxylic Acid] | 36% | – | – |
| – | CCOc1ccc(C(C)=NOCCCCC2COC(C)(C(=O)O)OC2)cc1 (centres unmarked) [Example 55, 5-{4-[1-(4-Ethoxy-phenyl)-ethylideneaminooxy]-butyl}-2-methyl-[1,3]dioxane-2-carboxylic Acid] | 46% | – | – |
| – | COc1ccc(C(C)=NOCCCCC2COC(C)(C(=O)O)OC2)cc1C (centres unmarked) [Example 57, 5-{4-[1-(4-Methoxy-3-methyl-phenyl)-ethylideneaminooxy]-butyl}-2-methyl-[1,3]dioxane-2-carboxylic Acid] | 43% | – | – |
| – | COc1ccc(C(C)=NOCCCCC2COC(C)(C(=O)O)OC2)cc1OC (centres unmarked) [Example 59, 5-{4-[1-(3,4-Dimethoxy-phenyl)-ethylideneaminooxy]-butyl}-2-methyl-[1,3]dioxane-2-carboxylic Acid] | 22% | – | – |
| – | CC(=NOCCCCC1COC(C)(C(=O)O)OC1)c1ccc(CC(C)C)cc1 (centres unmarked) [Example 60, 5-{4-[1-(4-Isobutyl-phenyl)-ethylideneaminooxy]-butyl}-2-methyl-[1,3]dioxane-2-carboxylic Acid] | 62% | – | – |
| – | COc1ccc(C(C)=NOCCCCC2COC(C)(C(=O)O)OC2)cc1F (centres unmarked) [Example 61, 5-{4-[1-(3-Fluoro-4-methoxy-phenyl)-ethylideneaminooxy]-butyl}-2-methyl-[1,3]dioxane-2-carboxylic Acid] | 44% | – | – |
| – | CC(=NOCCCCCC1COC(C)(C(=O)O)OC1)c1ccc2ccccc2c1 (centres unmarked) [Example 62, 2-Methyl-5-[5-(1-naphthalen-2-yl-ethylideneaminooxy)-pentyl]-[1,3]dioxane-2-carboxylic Acid] | 69% | – | – |
| – | CC(=NOCCCCC1COC(C)(C(=O)O)OC1)c1ccc2ccccc2c1 (centres unmarked) [Example 63, 2-Methyl-5-[4-(1-naphthalen-2-yl-ethylideneaminooxy)-butyl]-[1,3]dioxane-2-carboxylic Acid] | 84% | 59% | 41% |
| – | CC(=NOCCCCC1COC(C)(C(=O)O)OC1)c1ccc2c(c1)CCCC2 (centres unmarked) [Example 64, 2-Methyl-5-{4-[1-(5,6,7,8-tetrahydro-naphthalen-2-yl)-ethylideneaminooxy]-butyl}-[1,3]dioxane-2-carboxylic Acid] | 85% | 46% | 31% |
| – | COc1ccc(C(C)=NOCCCCC2COC(C)(C(=O)O)OC2)cc1 (centres unmarked) [Example 66, 5-{4-[1-(4-Methoxy-phenyl)-ethylideneaminooxy]-butyl}-2-methyl-[1,3]dioxane-2-carboxylic Acid] | 50% | 45% | 27% |
| – | CC(=NOCCCCC1COC(C)(C(=O)O)OC1)c1ccc(OS(C)(=O)=O)cc1 (centres unmarked) [Example 67, 5-{4-[1-(4-Methanesulfonyloxy-phenyl)-ethylideneaminooxy]-butyl}-2-methyl-[1,3]dioxane-2-carboxylic Acid] | 75% | 48% | 12% |
| – | CC(=NOCCCCC1COC(C)(C(=O)O)OC1)c1cccs1 (centres unmarked) [Example 68, 2-Methyl-5-[4-(1-thiophen-2-yl-ethylideneaminooxy)-butyl]-[1,3]dioxane-2-carboxylic Acid] | 33% | – | – |
| – | CC(=NOCCCCC1COC(C)(C(=O)O)OC1)c1ccc2c(c1)OCO2 (centres unmarked) [Example 69, 5-[4-(1-Benzo[1,3]dioxol-5-yl-ethylideneaminooxy)-butyl]-2-methyl-[1,3]dioxane-2-carboxylic acid] | 61% | – | – |
| – | CC(=NOCCCCC1COC(C)(C(=O)O)OC1)c1ccc(-c2ccccc2)cc1 (centres unmarked) [Example 70, 5-[4-(1-Biphenyl-4-yl-ethylideneaminooxy)-butyl]-2-methyl-[1,3]dioxane-2-carboxylic Acid] | 49% | 52% | 26% |
| – | CC(=NOCCCCC1COC(C)(C(=O)O)OC1)c1cccc(C)c1 (centres unmarked) [Example 76, 2-Methyl-5-[4-(1-m-tolyl-ethylideneaminooxy)-butyl]-[1,3]dioxane-2-carboxylic Acid] | 67% | – | – |
| – | CCC(=NOCCCCC1COC(C)(C(=O)O)OC1)c1ccc(OC)cc1 (centres unmarked) [Example 77, 5-{4-[1-(4-Methoxy-phenyl)-propylideneaminooxy]-butyl}-2-methyl-[1,3]dioxane-2-carboxylic Acid] | 39% | – | – |
| – | CCC(=NOCCCCC1COC(C)(C(=O)O)OC1)c1ccc(C)cc1 (centres unmarked) [Example 78, 2-Methyl-5-[4-(1-p-tolyl-propylideneaminooxy)-butyl]-[1,3]dioxane-2-carboxylic Acid] | 42% | – | – |
| – | CCCCCCCCOC(=O)C1(C)OCC(CCCCON=C(C)c2ccc3ccccc3c2)CO1 (centres unmarked) [Example 83, Octyl-2-methyl-5-[4-(1-naphthalen-2-yl-ethylideneaminooxy)-butyl]-[1,3]dioxane-2-carboxylate] | 61% | – | – |
